Entries after “also recorded” stand apart in the source; their conditions may differ.
Molecular target: T1, TLR 3 (Homo sapiens, UniProt O15455)
T1 construct: endogenous in cells; host or cells: BEAS2B (ATCC)
T1 sequence (O15455 24-904): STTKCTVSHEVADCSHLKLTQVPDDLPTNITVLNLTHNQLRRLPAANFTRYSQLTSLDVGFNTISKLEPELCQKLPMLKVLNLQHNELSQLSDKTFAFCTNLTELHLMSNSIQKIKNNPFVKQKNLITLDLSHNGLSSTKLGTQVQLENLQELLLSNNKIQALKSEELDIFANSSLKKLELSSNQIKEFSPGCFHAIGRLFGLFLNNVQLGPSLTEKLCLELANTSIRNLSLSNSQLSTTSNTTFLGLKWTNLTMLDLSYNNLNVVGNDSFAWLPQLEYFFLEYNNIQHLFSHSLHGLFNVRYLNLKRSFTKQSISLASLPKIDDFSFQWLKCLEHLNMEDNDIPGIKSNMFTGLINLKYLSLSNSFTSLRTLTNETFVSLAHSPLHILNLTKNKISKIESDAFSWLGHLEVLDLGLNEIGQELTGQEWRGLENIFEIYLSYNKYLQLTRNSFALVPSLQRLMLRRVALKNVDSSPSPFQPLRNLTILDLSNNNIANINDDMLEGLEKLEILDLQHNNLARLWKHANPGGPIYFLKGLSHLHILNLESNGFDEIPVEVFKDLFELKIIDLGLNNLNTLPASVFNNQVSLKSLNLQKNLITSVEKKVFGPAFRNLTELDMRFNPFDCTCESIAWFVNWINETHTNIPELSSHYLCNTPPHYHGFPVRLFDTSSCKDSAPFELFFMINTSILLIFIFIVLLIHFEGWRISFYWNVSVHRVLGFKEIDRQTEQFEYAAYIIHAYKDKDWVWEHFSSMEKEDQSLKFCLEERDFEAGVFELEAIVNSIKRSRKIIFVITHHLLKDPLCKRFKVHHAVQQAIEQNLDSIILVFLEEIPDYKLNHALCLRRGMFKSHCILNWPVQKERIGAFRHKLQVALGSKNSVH
Test: poly I:C-induced IL-8 release by BEAS2B cells (TLR 3 antagonism)
Type: cell-based
Details: for antagonism of TLR 3 activation (IL-8 release): poly I:C, 200 μg/ml lipid, 48 hours; for IL-8 release from BEAS2B cells in the absence of poly I:C: lipid alone; for TLR3 antagonist activity: reduction in cytokine secretion vs activating TLR ligand alone
Description: Human bronchial epithelial cells, BEAS2B, were obtained from ATCC and maintained in bronchial epithelial cell growth medium (BEGM), supplemented with the BulleKit from Lonza in accordance with protocol (M. H. Hudy, S. et al., “Cigarette smoke modulates rhinovirus-induced airway epithelial cell chemokine production.,” Eur. Respir. J., vol. 35, no. 6, pp. 1256-63, June 2010). Cells were cultured at 37 C with 5% carbon dioxide:95% air atmosphere maintained within the incubator. Experiments were conducted in 48-well plates and cells were seated at a density of 5×10^4 per well. After 24 hours, the BEGM medium was replaced with RPMI-1640 medium and incubated for an additional 24 hours. Liposomes were prepared as described above. Each condition for cell stimulation and antagonism was prepared in RPMI medium in a separate tube and consisted of: control (medium alone), TLR agonist, TLR agonist+lipid, and lipid alone. The cells were incubated in […] medium either with or without agonists and antagonists at 37° C. for 48 hours. Subsequently, media were collected, diluted and an enzyme-linked immunosorbent assay (ELISA) was performed to quantify IL-8 release by cells.
The ability of PX lipids to enter the endosomal compartment and modulate immune signaling was next assessed. The human bronchial epithelial cell line, BEAS2B, expresses TLR 3 in its endosomal compartments and is susceptible to infection by respiratory syncytial virus, making this cell line ideal cell line for this study. BEAS2B cells were stimulated with the TLR 3 agonist, poly I:C, in the presence or absence of phospholipid for 48 hours. After incubation, media was collected and IL-8 was quantified as a consequence of TLR 3 activation, and results are summarized in FIG. 5. […] Results from these experiments indicate that xylitol analogs were able to gain entry into BEAS2B cells and inhibit TLR 3 signaling. […] Thus, DMPX, 16:1 DPPX and 18:2 DLPX act as […]

Structure (SMILES)	antagonism of TLR 3 activation (IL-8 release)	IL-8 release from BEAS2B cells in the absence of poly I:C	TLR3 antagonist activity
CCCCCCCC/C=C\CCCCCCCC(=O)O[C@H](COC(=O)CCCCCCCCCCCCCCC)COP(=O)(O)OCC(O)CO (some centres unmarked) [POPG, palmitoyl-oleoyl-phosphatidylglycerol, reference compound]	markedly inhibited		
CCCCCCCCCCCCCC(=O)OC[C@H](COP(=O)(O)OCC(O)C(O)C(O)CO)OC(=O)CCCCCCCCCCCCC (mixture of isomers) [DMPX, sn-1-myristoyl, sn-2-myristoyl sn-3 glycerol phosphoxylitol]	ineffective antagonists of TLR 3	elicited an inflammatory response	
CCCCCCC=CCCCCCCCC(=O)OCC(COP(=O)(O)OCC(O)C(O)C(O)CO)OC(=O)CCCCCCCC=CCCCCCC (mixture of isomers) [16:1 DPPX, sn-1-palmitoleoyl, sn-2-palmitoleoyl sn-3 glycerol phosphoxylitol]	stimulated a robust release of IL-8; also recorded: ineffective antagonists of TLR 3	stimulated a robust release of IL-8	
CCCCCCCC/C=C\CCCCCCCC(=O)O[C@H](COC(=O)CCCCCCCCCCCCCCC)COP(=O)([O-])OCC[N+](C)(C)C [POPC, 1-palmitoyl-2-oleoyl-sn-glycero-3-phosphocholine, reference compound]	unaffected		
CCCCCCCCC=CCCCCCCCCOCC(COP(=O)(O)OCC(O)C(O)C(O)CO)OCCCCCCCCC=CCCCCCCCC (mixture of isomers) [18:1 DEPX, sn-1-O-octadecenyl, sn-2-O-octadecenyl sn-3 glycerol phosphoxylitol]	suppressed/inhibited activation of TLR3		+ (cutoff being greater than a 50% reduction in cytokine secretion compared to activating TLR ligand alone)
CCCCCCCCCCCCCCCCCC(=O)OCC(COP(=O)(O)OCC(O)C(O)C(O)CO)OC(=O)CCCCCCCCCCCCCCCCC (centres unmarked) [DSPX, sn-1-stearoyl, sn-2-stearoyl sn-3 glycerol phosphoxylitol]	suppressed/inhibited activation of TLR3		+ (cutoff being greater than a 50% reduction in cytokine secretion compared to activating TLR ligand alone)
CCCCCCCCCCCCCCCC(=O)OCC(COP(=O)(O)OCC(O)C(O)C(O)CO)OC(=O)CCCCCCCCCCCCCCC (centres unmarked) [DPPX, sn-1-palmitoyl, sn-2-palmitoyl sn-3 glycerol phosphoxylitol]	suppressed/inhibited activation of TLR3		+ (cutoff being greater than a 50% reduction in cytokine secretion compared to activating TLR ligand alone)
CCCCCCCCCCCCCCOC[C@H](COP(=O)(O)OCC(O)C(O)C(O)CO)OCCCCCCCCCCCCCC (mixture of isomers) [14:0 DEPX, sn-1-O-myristyl, sn-2-O-myristyl sn-3 glycerol phosphoxylitol]	suppressed/inhibited activation of TLR3		+ (cutoff being greater than a 50% reduction in cytokine secretion compared to activating TLR ligand alone)
CCCCCC=CCC=CCCCCCCCC(=O)OCC(COP(=O)(O)OCC(O)C(O)C(O)CO)OC(=O)CCCCCCCC=CCC=CCCCCC (mixture of isomers) [18:2 DLPX, sn-1-linoleoyl, sn-2-linoleoyl sn-3 glycerol phosphoxylitol]	ineffective antagonists of TLR 3	elicited an inflammatory response	
CCCCCCCC/C=C\CCCCCCCC(=O)O[C@H](COC(=O)CCCCCCCCCCCCCCC)COP(=O)(O)OCC(O)C(O)C(O)CO (some centres unmarked) [POPX, sn-1-palmitoyl, sn-2-oleoyly sn-3 glycerol phosphoxylitol]	suppressed/inhibited activation of TLR3		+ (cutoff being greater than a 50% reduction in cytokine secretion compared to activating TLR ligand alone)
CCCCCCCCC=CCCCCCCCC(=O)OCC(COP(=O)(O)OCC(O)C(O)C(O)CO)OC(=O)CCCCCCCC=CCCCCCCCC (mixture of isomers) [DOPX, sn-1-oleoyl, sn-2-oleoyl sn-3 glycerol phosphoxylitol]	suppressed/inhibited activation of TLR3		+ (cutoff being greater than a 50% reduction in cytokine secretion compared to activating TLR ligand alone)

Source: patent US12472193B2, “Methods and compositions for treating and preventing respiratory related diseases and conditions with xylitol-headgroup lipid analogs” (National Jewish Health, priority 2017, dated 2025)
